# Results published in patent US20200271654A1, “Quantifying MGMT Protein For Optimal Cancer Therapy” (Expression Pathology, Inc., priority 2017, published 2020).
# System: advanced colorectal cancer (CRC)
# Experiment: Survival of advanced colorectal cancer patients treated with temozolomide, stratified by tumor MGMT protein level (SRM mass spectrometry)
# Format: in vivo
# Conditions: for median progression-free survival (PFS): treated with temozolomide
# Text: 24 patients from Fondazione IRCCS Istituto Nazionale dei TumoriVia Venezian, Milan, Italy, were identified with advanced colorectal cancer (CRC). Tumors were surgically removed prior to treatment and archived as formalin-fixed, paraffin-embedded (FFPE) tissue and all were histologically colorectal cancer. All 24 patients were subsequently treated with temozolomide.
# Archived formalin-fixed, paraffin-embedded tissue sections were obtained from patients with advanced CRC treated with temozolomide (n=24). A board-certified pathologist marked the tumor areas. Based on the markups, tumor cells were laser microdissected and solubilized to tryptic peptides using the Liquid Tissue process. In each liquefied sample, multiple protein biomarkers including MGMT were quantified by selected reaction monitoring (SRM) mass spectrometry (MS). A mixture of stable isotope-labeled heavy peptides including the MGMT fragment peptide TTLDSPLGK was added prior to MS analysis. Each sample was analyzed in triplicate. […] The Mantel-Cox log-rank and Gehan-Breslow-Wilcoxon tests were used for survival comparisons.
smiles,measurement,setting,value
Cn1nnc2c(C(N)=O)ncn2c1=O [temozolomide],median progression-free survival (PFS),CRC patients with MGMT levels above cutoff of 200 amol/μg,1.6 months
same,median progression-free survival (PFS),"CRC patients with MGMT protein levels below cutoff of 200 amol/μg (n=11), p=0.0611 vs above cutoff",4.3 months
same,"ratio of median progression-free survival, MGMT below cutoff vs above cutoff","cutoff 200 amol/μg, temozolomide-treated CRC patients",approximately 2.5 times
